The source of these data is publication PMC7765409 (International Journal of Molecular Sciences, 2020).

SMILES strings stand for the structures. Read-outs that look alike come from different tables or passages of the source.

Data set [1] deals with lipid droplet accumulation in TG/FA-treated hiPSC-Hep. Put plainly: hiPSC-Hep ER-stress (TG/FA) induced lipid droplet accumulation high-content assay, integrated spot signal (BODIPY 493/503). Format: cell-based, human. As to conditions: for IC50: Homo sapiens, cells pre-treated 24 h and co-treated additional 18 h with TG/FA. The procedure:
Cryopreserved hiPSC-derived hepatocytes (iCell Hepatocytes 2.0; Cellular Dynamics International Madison, WI) plated at a density of 36 K/well in 384-well on collagen I coated Corning Biocoat 384-well plates (BD Biosciences, 101306), were cultured to promote hepatic differentiation and maturation into hepatic-like cells as previously described. Hepatocytes were plated according to the manufacturer’s protocol in a volume of 50 µL/well using BioTek^TM Microflo^TM select dispenser (#7170011, BioTek Instruments) for high-throughput and high-content analysis assay (HT/HCA) drug discovery. After plating cells were cultured according to vendor specifications in a cell culture incubator at 37 °C, 5% CO2 for 3–4 h. Then, 40 µL spent medium was aspirated using multi-channel automated pipette handling system (Integra ViaFlo 96/384) and replaced with 40 µL (80% exchange) of fresh plating medium. Approximately 24 h post-plating 80% of medium was replaced every day thereafter. At day 5 of differentiation, 40 µL/well spent medium was replaced with maintenance medium (MM) consisting of William’s E medium (Thermo Fisher Scientific) supplemented with 0.1 µM dexamethasone and hepatocyte maintenance supplement pack (Thermo Fisher Scientific) for an additional 2–3 days before HCA. The overview of automated HT system for hiPSC-derived hepatocytes differentiation, staining and image analysis for phenotypic screening is depicted in Figure S2. Primary screening hit confirmation and dose response studies were performed on different batches of hiPSC-derived hepatocytes.
To induce hepatic triglycerides (TAG) accumulation, before staining, cells were treated with 20 μL of 2× FA mixture, consisting of different proportions of oleic acid (OA-BSA, 25 µM, Sigma, #O3008), palmitic acid (PA-BSA, 200 µM, Agilent Technologies, #102720100) and thapsigargin (TG, 1 µM, Abcam, #120286) with a total volume of 40 μL/well. The TG/FA mixture was dispensed with BioTek^TM Microflo^TM select dispenser (#7170011, BioTek Instruments) and incubated for 18 h. Next, to label TAG accumulation stored into cytoplasmic lipid droplets, upon treatment, living cells were washed two times with warm Dulbecco’s Phosphate-Buffered Saline 1X (PBS, Corning, #21-031CV) with a handheld 384-channel electronic pipette device and then incubated for 15 min with a lipophilic dye, BODIPY 493/503 (8 ug/mL Life technologies, #D3922-green), in PBS at 37 °C. BODIPY (493/503) has become the standard dye utilized by scientists to study lipid droplets in live cells. After three washes with PBS cells were fixed with 4% paraformaldehyde methanol-free (PFA, Electron Microscopy Science, #15710) in PBS for 15 min at room temperature (RT). Cell health was monitored by Hoechst 33342 (10 ug/mL, Molecular Probe, #H21492) staining in PBS for nuclear count. After TAG staining the 384-assay plates were loaded in an automated confocal microscope with Opera High Content Imaging System (PerkinElmer, Waltham, MA, USA). Dyes were excited and images were captured on the Hoechst 3342 and Alexa Fluor 488 channels and signals were collected with a long pass filter 410 and 505 nm, for nuclei and TAG, respectively, at objective 20× air objective for HCA. To capture enough cells (>600) for the analysis, eight fields per well were imaged. Hoechst 33342 fluorescence was used to identify the nuclear region and cell counts. To assess intracellular fat deposits, BODIPY 493/503 fluorescence intensity was measured inside the cytoplasm region.
For the HCA screen, compounds tested for their inhibitory effects, were used as single dose at a 10 μM final concentration of compound in DMSO in each well (0.1% DMSO) in 20 μL of maintenance medium. Prior to compound addition, 30 µL/well of medium was removed from hiPSC-Hep cells screening plates with ViaFlo ([…]). Pre-spotted 80 nL of 10 mM compound were diluted to 20 μM (0.2% DMSO) in 40 μL of maintenance medium in the source 384-well plate. […]

Data set [2] has as its system FXR target genes. Put plainly: transcriptomic (RNA-seq) analysis of OCA pre-incubated TG/FA-treated hiPSC-Hep. As to conditions: TG/FA+OCA vs TG/FA. Format: cell-based, human. The procedure: The phenotypic assay was measured and quantified by BODIPY 493/503-stained neutral lipid droplets multiplexed with Hoechst dye to detect viable cell count, as shown by the process in Supplementary Figure S2. Obeticholic acid (OCA), a clinically advanced therapeutic and farnesoid X receptor (FXR) agonist evaluated in phase III trials for the treatment of NASH [40], was used as an inhibitor control of lipid accumulation (Figure 1A). […] Our results are in accordance with therapeutic plasma concentrations of OCA (0.290 µM) and with studies performed in a human liver in vitro system (0.5 µM). […] FXR target genes, including fibroblast growth factor 19 (FGF19), solute carrier family 51 subunit Beta (SLC51B), cytochrome P450 7A1 (CYP7A1) and perilipin 1 (PLIN1) are regulated by OCA under our treatment conditions.
Z’ = 1 − (3 SD of sample group + 3 SD of negative control)/(mean of sample group−mean of negative control). FA/TG-treated wells were defined as general sample group and BSA-treated wells were defined as negative controls for calculating Z’-factor. In our assay, the Z’ criteria were as follows: Z’ = 0.5–1.0 corresponds to an excellent assay; Z’ = 0–0.5 corresponds to a suboptimal assay; Z’ < 0 corresponds to an unsuccessful assay. Percent inhibition of lipid accumulation was calculated based on the positive (BSA-treated) and negative (FA/TG-treated) controls on each plate: % inhibition = 100 * [(compound value–AVEneg)/(AVEpos–AVEneg)]. RNA-seq data were analyzed by iPathwayGuide (Advaita Bioinformatics: http://www.advaitabio.com/ipathwayguide.html) as described in [35]. Differences between two groups were analyzed using Student’s t-tests. Fold-change expression values obtained from RT-qPCR were analyzed by one-way analysis of variance (ANOVA) followed by post hoc comparisons of group means with the Tukey’s multiple comparison tests at an overall confidence level of 95% using Prism software (GraphPad).

In data set [3] the test system is DGAT2 mRNA. On the set-up: method as in PMID 30254132. The settings on record: after 4 and 18 h treatment with thapsigargin and free-fatty acids; cited from earlier work.
Details of data set [4]: method as in PMID 29226620. The settings on record: cited from earlier work.
Data set [5] deals with oleic acid-induced lipid droplet accumulation in hiPSC-Hep. Briefly: oleic acid-induced lipid droplet accumulation in hiPSC-Hep. The data set is classed as cell-based, human. As to conditions: exogenous oleic acid. The procedure:
(§1) A monolayer of hiPSC-Hep, with hepatocyte-like morphology, gene expression and function, was used as a cell model for induction of steatosis and high-content analysis to detect neutral lipid droplet accumulation and inhibition. […] Incubation of the cells with a saturated fluorescently labeled fatty acid analog confirmed localization into neutral lipid vacuoles (Supplementary Figure S1C–F).

Data set [6] deals with palmitic acid-induced lipid accumulation in hiPSC-Hep. Put plainly: palmitic acid-induced lipid accumulation in hiPSC-Hep. As to conditions: exogenous palmitic acid. The data set is classed as cell-based, human. The procedure:
as §1

Turning to `CC[C@H]1[C@@H](O)[C@@H]2[C@H](CC[C@]3(C)[C@@H]([C@H](C)CCC(=O)O)CC[C@@H]23)[C@@]2(C)CC[C@@H](O)C[C@@H]12` [OCA, Obeticholic acid], the IC50 in data set [1] (read-out: half maximal inhibitory concentration (IC50) for reduction of lipid accumulation) is 630 nM. The IC50 in data set [1] (read-out: pIC50 for reduction of lipid accumulation (converted)) is 631 nM. Also, the “lipid content of lipid droplet-stained cells” value in data set [1] (OCA at 20 µM in TG/FA-treated cells vs BSA-treated control) is recorded as “reduced lipid content to control levels”. For the same compound, in data set [2], the CYP7A1 gene regulation entry was “downregulation”, the FGF19 gene regulation entry is reported as “upregulation”, the PLIN1 gene regulation result is “upregulation” and the SLC51B gene regulation result is “downregulation”. In data set [3], the “effect on DGAT2 expression” value was “significantly inhibited”. Also, the therapeutic plasma concentrations in data set [4] is 0.290 µM.

Consider `CCC/C=C/C/C=C/C=C/C=N/NN=O` [Triacsin C], for which the “inhibition of oleic acid-induced lipid droplet accumulation” value in data set [5] was “fully inhibits”; in data set [5] (listed as triacsin C), “completely inhibits”. For the same compound, in data set [6], the “inhibition of palmitic acid-induced lipid accumulation” value is recorded as “did not inhibit”.
